# Data taken from US20060069132A1, “Azolecarboxamide herbicides” (priority 2004, published 2006).
# Experiments:
# ducksalad = assay: Test B flooded paddy test; type: in vivo, Heteranthera limosa; settings: 1000 g ai/ha, scale 0 to 100 (0 no effect, 100 complete control)
# How it was run: (§1)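 After treating 2-leaf paddy plants or 2–18 cm postemergence plants (1 to 4 leaves) with formulated chemical, researchers kept them in a greenhouse for 13–15 days. Effects were judged visually versus controls: 0 indicates none, 100 total control.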
# blackgrass = assay: Test B postemergence herbicide test; type: in vivo, Alopecurus myosuroides; settings: scale 0 (no effect) to 100 (complete control)
# How it was run: as §1
# Surinam grass = assay: Test B pre-/postemergence herbicide test; type: in vivo, Urochloa decumbens
# How it was run: (§2)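 Greenhouse pot assay with simultaneous preemergence (treated seed) and postemergence (2–18 cm seedlings) applications of surfactant-containing, non-phytotoxic solvent formulations. Response scored visually 13–15 days later on a 0–100 scale, 100 meaning complete control.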
# wheat = assay: Test B postemergence herbicide test; type: in vivo, Triticum aestivum; parameters: key to Wheat plant response rating: 0 = no effect, 100 = complete control; settings: for Wheat plant response rating: postemergence
# How it was run: (§3)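 Treated at 2-leaf (paddy) or 1–4-leaf, 2–18 cm (postemergence); greenhouse 13–15 d; visual score vs control, 0 none to 100 complete control; dash = not tested.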
# barnyardgrass [1] = assay: Test B flooded paddy test; type: in vivo, Echinochloa crus-galli; settings: 1000 g ai/ha, scale 0 to 100 (0 no effect, 100 complete control)
# How it was run: as §1
# morningglory = assay: Test B pre-/postemergence herbicide test; type: in vivo, Ipomoea coccinea
# How it was run: (§4)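 Flooded paddy rice and barnyardgrass were treated at the 2-leaf stage; upland plantings received compound either on sown seed or on 1- to 4-leaf seedlings. All were kept 13–15 days in a greenhouse and scored visually, 0–100, relative to untreated plants.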
# large crabgrass = assay: Test B pre-/postemergence herbicide test; type: in vivo, Digitaria sanguinalis
# How it was run: as §2
# wild oat = assay: Test B postemergence herbicide test; type: in vivo, Avena fatua
# How it was run: as §3
# rice = assay: Test B flooded paddy test; type: in vivo, Oryza sativa; settings: 1000 g ai/ha, scale 0 to 100 (0 no effect, 100 complete control)
# How it was run: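 Greenhouse test; postemergence application to plants at 1–4 leaves (2–18 cm); paddy species at 2 leaves; evaluated visually vs controls at 13–15 days; scale 0–100 (100 = complete control).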
# giant foxtail = assay: Test B pre-/postemergence herbicide test; type: in vivo, Setaria faberi
# How it was run: as §2
# pigweed = assay: Test B pre-/postemergence herbicide test; type: in vivo, Amaranthus retroflexus
# How it was run: as §2
# corn = assay: Test B pre-/postemergence herbicide test; type: in vivo, Zea mays
# How it was run: as §2
# [2] = system: small flower umbrella sedge; assay: Test B flooded paddy test; type: in vivo, Cyperus difformis; settings: 1000 g ai/ha, scale 0 to 100 (0 no effect, 100 complete control)
# How it was run: as §1
# barnyardgrass [3] = assay: Test B pre-/postemergence herbicide test; type: in vivo, Echinochloa crus-galli
# How it was run: as §4
# velvetleaf = assay: Test B pre-/postemergence herbicide test; type: in vivo, Abutilon theophrasti
# How it was run: as §2
# [4] = 125 g ai/ha, 0 = no effect, 100 = complete control, preemergence
# [5] = 500 g ai/ha, visual rating, 0 = no effect, 100 = complete control, preemergence
# [6] = postemergence, 125 g ai/ha, visual rating, scale 0 (no effect) to 100 (complete control)
# [7] = postemergence, 500 g ai/ha, scale 0 to 100, 0 is no effect, 100 is complete control
# [8] = Postemergence, 500 g ai/ha, visual rating after 13 to 15 days, scale 0 (no effect) to 100 (complete control)
# [9] = Preemergence, 500 g ai/ha, scale 0 to 100
# [10] = preemergence, 125 g ai/ha, 0 to 100 scale, 0 is no effect, 100 is complete control
# [11] = Postemergence, 125 g ai/ha, scale 0 (no effect) to 100 (complete control)
smiles,measurement,setting,value
CCn1nc(C(C)(C)C)cc1C(=O)Nc1cc(C(=O)N2CCCC2)ccc1F [Compound 242],Ducksalad plant response rating,ducksalad,90
same,Blackgrass plant response rating,"blackgrass; postemergence, 125 g ai/ha, visual rating",10
same,Blackgrass plant response rating,"blackgrass; postemergence, 500 g ai/ha, visual rating",20
same,Surinam Grass plant response rating (0 to 100 scale),Surinam grass; [4],70
same,"Plant response rating, Surinam Grass",Surinam grass; [5],90
same,Surinam Grass plant response rating,Surinam grass; [6],30
same,Surinam Grass plant response rating,Surinam grass; [7],60
same,Wheat plant response rating,"wheat; 125 g ai/ha, visual rating, scale 0 (no effect) to 100 (complete control)",10
same,Wheat plant response rating,"wheat; 500 g ai/ha, scale 0 to 100, 0 is no effect, 100 is complete control",10
same,Barnyardgrass plant response rating,barnyardgrass [1],90
same,Morningglory plant response rating (0 to 100 scale),morningglory; [4],0
same,"Plant response rating, Morningglory",morningglory; [5],10
same,Morningglory plant response rating,morningglory; [6],20
same,Morningglory plant response rating,morningglory; [7],40
same,"Crabgrass, Large plant response rating (0 to 100 scale)",large crabgrass; [4],90
same,"Plant response rating, Crabgrass, Large",large crabgrass; [5],100
same,"Crabgrass, Large plant response rating",large crabgrass; [6],30
same,"Crabgrass, Large plant response rating",large crabgrass; [7],50
same,"Oat, Wild plant response rating",wild oat; [6],10
same,"Oat, Wild plant response rating",wild oat; [7],30
same,Rice plant response rating,rice,90
same,"Foxtail, Giant plant response rating (0 to 100 scale)",giant foxtail; [4],80
same,"Plant response rating, Foxtail, Giant",giant foxtail; [5],90
same,"Foxtail, Giant plant response rating",giant foxtail; [6],20
same,"Foxtail, Giant plant response rating",giant foxtail; [7],30
same,Pigweed plant response rating (0 to 100 scale),pigweed; [4],100
same,"Plant response rating, Pigweed",pigweed; [5],100
same,Pigweed plant response rating,pigweed; [6],60
same,Pigweed plant response rating,pigweed; [7],80
same,Corn plant response rating (0 to 100 scale),corn; [4],30
same,"Plant response rating, Corn",corn; [5],60
same,Corn plant response rating,corn; [6],10
same,Corn plant response rating,corn; [7],40
same,"Sedge, Umbrella plant response rating",[2],90
same,Barnyardgrass plant response rating (0 to 100 scale),barnyardgrass [3]; [4],80
same,"Plant response rating, Barnyardgrass",barnyardgrass [3]; [5],100
same,Barnyardgrass plant response rating,barnyardgrass [3]; [6],50
same,Barnyardgrass plant response rating,"barnyardgrass [3]; postemergence, 500 g ai/ha, visual rating, scale 0 (no effect) to 100 (complete control)",60
same,Velvetleaf plant response rating (0 to 100 scale),velvetleaf; [4],50
same,"Plant response rating, Velvetleaf",velvetleaf; [5],100
same,Velvetleaf plant response rating,velvetleaf; [6],50
same,Velvetleaf plant response rating,velvetleaf; [7],60
CCCCn1nc(C(C)(C)C)cc1C(=O)Nc1cccc(C(=O)NCC)c1 [Compound 41],Ducksalad plant response rating,"ducksalad; visual rating, 13 to 15 days",60
same,Blackgrass plant response rating,"blackgrass; Postemergence, 125 g ai/ha",10
same,"Plant response rating, Blackgrass","blackgrass; Postemergence, 500 g ai/ha, visual rating after 13 to 15 days",20
same,"Plant response rating, Surinam Grass",Surinam grass; [8],20
same,Surinam Grass plant response rating,Surinam grass; [9],60
same,"Plant response rating, Surinam Grass",Surinam grass; [10],10
same,"Plant response rating, Wheat",wheat; [8],10
same,Barnyardgrass plant response rating,"barnyardgrass [1]; visual rating, 13 to 15 days",50
same,Morningglory plant response rating,morningglory; [9],10
same,"Plant response rating, Morningglory",morningglory; [10],0
same,"Crabgrass, Large plant response rating",large crabgrass; [11],20
same,"Plant response rating, Crabgrass, Large",large crabgrass; [8],30
same,"Crabgrass, Large plant response rating",large crabgrass; [9],100
same,"Oat, Wild plant response rating",wild oat; [11],10
same,"Plant response rating, Oat, Wild",wild oat; [8],10
same,Rice plant response rating,"rice; visual rating, 13 to 15 days",20
same,"Foxtail, Giant plant response rating",giant foxtail; [11],10
same,"Plant response rating, Foxtail, Giant",giant foxtail; [8],20
same,"Foxtail, Giant plant response rating",giant foxtail; [9],70
same,"Plant response rating, Foxtail, Giant",giant foxtail; [10],10
same,"Plant response rating, Pigweed",pigweed; [8],70
same,Pigweed plant response rating,pigweed; [9],70
same,"Plant response rating, Pigweed",pigweed; [10],70
same,Corn plant response rating,corn; [9],0
same,"Sedge, Umbrella plant response rating","[2]; visual rating, 13 to 15 days",70
same,Barnyardgrass plant response rating,barnyardgrass [3]; [11],10
same,"Plant response rating, Barnyardgrass",barnyardgrass [3]; [8],20
same,Barnyardgrass plant response rating,barnyardgrass [3]; [9],80
same,"Plant response rating, Velvetleaf",velvetleaf; [8],20
same,Velvetleaf plant response rating,velvetleaf; [9],10
same,"Plant response rating, Velvetleaf",velvetleaf; [10],0
